{
  "source": "patent US20080193976A1",
  "about": "(priority 2005, published 2008)",
  "system": "CD4+T-cells",
  "format": "cell-based, human",
  "data": [
    {"substance": "ARGRIRNGALLRVYVPRS [Peptide 75-76]", "values": [
      {"measurement": "epitope classification", "value": "major (or significant) epitope"},
      {"measurement": "responders", "value": 22.62, "unit": "%"}
    ]},
    {"substance": "RLVALYLAARLSWNQ [Peptide 15]", "values": [
      {"measurement": "epitope classification", "value": "minor epitopes"},
      {"measurement": "responders", "value": 14.29, "unit": "%"}
    ]},
    {"substance": "SQDLDAIWRGFYIAG [Peptide 65]", "values": [
      {"measurement": "epitope classification", "value": "minor epitopes"},
      {"measurement": "responders", "value": 14.29, "unit": "%"}
    ]},
    {"substance": "tetanus toxoid [reference compound]", "values": [
      {"measurement": "positive control response", "value": "robust positive control responses"}
    ]}
  ]
}
